Values joined by “and” are separate entries in the source; they are usually repeats but may differ in a detail not shown here. Equal entries are not always repeated. ± gives the expanded uncertainty stated by the source.
SMILES: [I][Sm]([I])[I] [samarium triiodide]
- vapor or sublimation pressure (789 K, Crystal): 0.00017 ± 3e-05 kPa
- vapor or sublimation pressure (797 K, Crystal): 0.00024 ± 3e-05 kPa
- vapor or sublimation pressure (799 K, Crystal): 0.0002 ± 3e-05 kPa
- vapor or sublimation pressure (801 K, Crystal): 0.0002 ± 2e-05 kPa
- vapor or sublimation pressure (805 K, Crystal): 0.00034 ± 5e-05 kPa
- vapor or sublimation pressure (807 K, Crystal): 0.00029 ± 6e-05 kPa
- vapor or sublimation pressure (808 K, Crystal): 0.00025 ± 5e-05 kPa
- vapor or sublimation pressure (814 K, Crystal): 0.00051 ± 7e-05 kPa
- vapor or sublimation pressure (815 K, Crystal): 0.00034 ± 7e-05 kPa
- vapor or sublimation pressure (819 K, Crystal): 0.00051 ± 6e-05 kPa
- vapor or sublimation pressure (823 K, Crystal): 0.00071 ± 8e-05 kPa and 0.00047 ± 6e-05 kPa
- vapor or sublimation pressure (824 K, Crystal): 0.00064 ± 7e-05 kPa
- vapor or sublimation pressure (832 K, Crystal): 0.00067 ± 9e-05 kPa
- vapor or sublimation pressure (833 K, Crystal): 0.00088 ± 0.00011 kPa and 0.00101 ± 0.00021 kPa
- vapor or sublimation pressure (840 K, Crystal): 0.00111 ± 0.00024 kPa and 0.00098 ± 0.00012 kPa
- vapor or sublimation pressure (843 K, Crystal): 0.00145 ± 0.00032 kPa
- vapor or sublimation pressure (849 K, Crystal): 0.00148 ± 0.00033 kPa and 0.00135 ± 0.0003 kPa
- vapor or sublimation pressure (852 K, Crystal): 0.00212 ± 0.0005 kPa
- vapor or sublimation pressure (856 K, Crystal): 0.00189 ± 0.00045 kPa
- vapor or sublimation pressure (857 K, Crystal): 0.00168 ± 0.00038 kPa
- vapor or sublimation pressure (863 K, Crystal): 0.00236 ± 0.00059 kPa
- vapor or sublimation pressure (867 K, Crystal): 0.00236 ± 0.00058 kPa
- vapor or sublimation pressure (868 K, Crystal): 0.00276 ± 0.00068 kPa
- vapor or sublimation pressure (876 K, Crystal): 0.00307 ± 0.00077 kPa

SMILES: [I][Sm][I] [samarium diiodide]
- vapor or sublimation pressure (1048 K, Liquid): 0.00013 ± 2e-05 kPa
- vapor or sublimation pressure (1051 K, Liquid): 0.00016 ± 2e-05 kPa
- vapor or sublimation pressure (1064 K, Liquid): 0.00021 ± 2e-05 kPa
- vapor or sublimation pressure (1065 K, Liquid): 0.00019 ± 2e-05 kPa
- vapor or sublimation pressure (1068 K, Liquid): 0.00024 ± 3e-05 kPa
- vapor or sublimation pressure (1069 K, Liquid): 0.00024 ± 3e-05 kPa
- vapor or sublimation pressure (1072 K, Liquid): 0.00021 ± 3e-05 kPa
- vapor or sublimation pressure (1074 K, Liquid): 0.00027 ± 4e-05 kPa
- vapor or sublimation pressure (1076 K, Liquid): 0.00027 ± 3e-05 kPa and 0.00024 ± 3e-05 kPa
- vapor or sublimation pressure (1078 K, Liquid): 0.00029 ± 4e-05 kPa
- vapor or sublimation pressure (1080 K, Liquid): 0.0004 ± 4e-05 kPa
- vapor or sublimation pressure (1082 K, Liquid): 0.00032 ± 5e-05 kPa
- vapor or sublimation pressure (1085 K, Liquid): 0.00035 ± 4e-05 kPa
- vapor or sublimation pressure (1086 K, Liquid): 0.00035 ± 4e-05 kPa
- vapor or sublimation pressure (1088 K, Liquid): 0.00048 ± 5e-05 kPa
- vapor or sublimation pressure (1089 K, Liquid): 0.00035 ± 4e-05 kPa
- vapor or sublimation pressure (1092 K, Liquid): 0.00043 ± 5e-05 kPa and 0.00035 ± 4e-05 kPa
- vapor or sublimation pressure (1093 K, Liquid): 0.00043 ± 4e-05 kPa
- vapor or sublimation pressure (1094 K, Liquid): 0.00043 ± 5e-05 kPa
- vapor or sublimation pressure (1096 K, Liquid): 0.00048 ± 6e-05 kPa
- vapor or sublimation pressure (1098 K, Liquid): 0.00045 ± 5e-05 kPa
- vapor or sublimation pressure (1100 K, Liquid): 0.00045 ± 5e-05 kPa
- vapor or sublimation pressure (1101 K, Liquid): 0.00053 ± 6e-05 kPa
- vapor or sublimation pressure (1102 K, Liquid): 0.00075 ± 8e-05 kPa
- vapor or sublimation pressure (1103 K, Liquid): 0.00056 ± 7e-05 kPa
- vapor or sublimation pressure (1104 K, Liquid): 0.00059 ± 6e-05 kPa
- vapor or sublimation pressure (1106 K, Liquid): 0.00056 ± 6e-05 kPa
- vapor or sublimation pressure (1108 K, Liquid): 0.00064 ± 7e-05 kPa and 0.00051 ± 5e-05 kPa
- vapor or sublimation pressure (1110 K, Liquid): 0.00061 ± 6e-05 kPa
- vapor or sublimation pressure (1111 K, Liquid): 0.00064 ± 7e-05 kPa
- vapor or sublimation pressure (1113 K, Liquid): 0.00064 ± 7e-05 kPa
- vapor or sublimation pressure (1114 K, Liquid): 0.00077 ± 8e-05 kPa
- vapor or sublimation pressure (1118 K, Liquid): 0.00069 ± 9e-05 kPa and 0.00075 ± 9e-05 kPa and 0.00064 ± 8e-05 kPa
- vapor or sublimation pressure (1120 K, Liquid): 0.0008 ± 8e-05 kPa
- vapor or sublimation pressure (1121 K, Liquid): 0.00117 ± 0.00024 kPa
- vapor or sublimation pressure (1124 K, Liquid): 0.00093 ± 0.00012 kPa and 0.00096 ± 0.00012 kPa and 0.00085 ± 0.00011 kPa
- vapor or sublimation pressure (1125 K, Liquid): 0.00085 ± 0.00011 kPa
- vapor or sublimation pressure (1126 K, Liquid): 0.00091 ± 9e-05 kPa
- vapor or sublimation pressure (1128 K, Liquid): 0.00139 ± 0.0003 kPa and 0.00085 ± 9e-05 kPa
- vapor or sublimation pressure (1129 K, Liquid): 0.00107 ± 0.00022 kPa and 0.00096 ± 0.0001 kPa
- vapor or sublimation pressure (1133 K, Liquid): 0.00123 ± 0.00026 kPa and 0.00104 ± 0.00022 kPa
- vapor or sublimation pressure (1134 K, Liquid): 0.00107 ± 0.00022 kPa
- vapor or sublimation pressure (1135 K, Liquid): 0.00115 ± 0.00027 kPa
- vapor or sublimation pressure (1136 K, Liquid): 0.00134 ± 0.00029 kPa
- vapor or sublimation pressure (1138 K, Liquid): 0.00112 ± 0.00023 kPa
- vapor or sublimation pressure (1139 K, Liquid): 0.00123 ± 0.00027 kPa
- vapor or sublimation pressure (1140 K, Liquid): 0.00176 ± 0.00041 kPa
- vapor or sublimation pressure (1141 K, Liquid): 0.00128 ± 0.00027 kPa
- vapor or sublimation pressure (1142 K, Liquid): 0.00155 ± 0.00034 kPa and 0.00128 ± 0.00027 kPa
- vapor or sublimation pressure (1144 K, Liquid): 0.00144 ± 0.00032 kPa
- vapor or sublimation pressure (1145 K, Liquid): 0.0016 ± 0.00035 kPa and 0.00166 ± 0.00037 kPa
- vapor or sublimation pressure (1148 K, Liquid): 0.00144 ± 0.00031 kPa
- vapor or sublimation pressure (1150 K, Liquid): 0.0016 ± 0.00037 kPa
- vapor or sublimation pressure (1151 K, Liquid): 0.0016 ± 0.00036 kPa
- vapor or sublimation pressure (1152 K, Liquid): 0.00198 ± 0.00046 kPa
- vapor or sublimation pressure (1153 K, Liquid): 0.00182 ± 0.00043 kPa
- vapor or sublimation pressure (1154 K, Liquid): 0.00203 ± 0.00052 kPa
- vapor or sublimation pressure (1155 K, Liquid): 0.00214 ± 0.00052 kPa
- vapor or sublimation pressure (1158 K, Liquid): 0.00198 ± 0.00048 kPa and 0.00192 ± 0.00046 kPa and 0.00187 ± 0.00045 kPa
- vapor or sublimation pressure (1159 K, Liquid): 0.00262 ± 0.00064 kPa and 0.00203 ± 0.00048 kPa
- vapor or sublimation pressure (1160 K, Liquid): 0.0023 ± 0.00055 kPa
- vapor or sublimation pressure (1161 K, Liquid): 0.0024 ± 0.00057 kPa and 0.00219 ± 0.00052 kPa
- vapor or sublimation pressure (1162 K, Liquid): 0.00208 ± 0.00048 kPa and 0.00203 ± 0.00047 kPa
- vapor or sublimation pressure (1164 K, Liquid): 0.00262 ± 0.00063 kPa
- vapor or sublimation pressure (1167 K, Liquid): 0.00246 ± 0.00062 kPa
- vapor or sublimation pressure (1168 K, Liquid): 0.0024 ± 0.0006 kPa
- vapor or sublimation pressure (1169 K, Liquid): 0.00278 ± 0.0007 kPa and 0.00288 ± 0.00073 kPa
- vapor or sublimation pressure (1170 K, Liquid): 0.00272 ± 0.00069 kPa
- vapor or sublimation pressure (1171 K, Liquid): 0.00347 ± 0.0009 kPa and 0.00251 ± 0.00063 kPa and 0.00246 ± 0.00061 kPa
- vapor or sublimation pressure (1173 K, Liquid): 0.0031 ± 0.00079 kPa
- vapor or sublimation pressure (1177 K, Liquid): 0.00331 ± 0.00085 kPa [middle of 4 runs]
- vapor or sublimation pressure (1178 K, Liquid): 0.00326 ± 0.00087 kPa
- vapor or sublimation pressure (1179 K, Liquid): 0.00288 ± 0.00071 kPa and 0.00358 ± 0.00092 kPa and 0.00294 ± 0.00073 kPa
- vapor or sublimation pressure (1181 K, Liquid): 0.00368 ± 0.00095 kPa
- vapor or sublimation pressure (1183 K, Liquid): 0.00449 ± 0.0012 kPa
- vapor or sublimation pressure (1185 K, Liquid): 0.00363 ± 0.00094 kPa
- vapor or sublimation pressure (1186 K, Liquid): 0.00368 ± 0.00095 kPa [middle of 5 runs]
- vapor or sublimation pressure (1187 K, Liquid): 0.00401 ± 0.001 kPa
- vapor or sublimation pressure (1188 K, Liquid): 0.00427 ± 0.0011 kPa
- vapor or sublimation pressure (1189 K, Liquid): 0.00336 ± 0.00085 kPa and 0.00331 ± 0.00083 kPa
- vapor or sublimation pressure (1195 K, Liquid): 0.00443 ± 0.0012 kPa
- vapor or sublimation pressure (1196 K, Liquid): 0.00507 ± 0.0015 kPa
